The values below come from patent publication US8247569B2, “Cyclohexane derivative and pharmaceutical use thereof” (Toray Industries, Inc., priority 2008, dated 2012).

Broadly, the clearance is the volume of plasma or blood freed of the substance per unit of time. In general, bioavailability refers to the share of a dose that reaches the circulation, judged against a reference dose that is usually intravenous. In general, ED50 refers to the midpoint of the dose-response relation.

SMILES strings stand for the structures.

The test system of series [1] is mouse sciatic nerve-ligation model (Seltzer model). Nature of the series: mouse partial sciatic nerve ligation model (Seltzer model), von Frey test. The note with it: positive controls, gabapentin 30 mg/kg oral, dose of Comparative Example 29 not given.
Series [2] is described as follows: pharmacokinetics (PK) test in mice. Type of series: in vivo. Conditions: mouse, plasma, female CD1 (ICR) mice, fasted; for clearance: intravenous, read-out: total body clearance (converted); for bioavailability: oral vs intravenous administration, from dose-normalized AUC0-24 hr, read-out: bioavailability (BA). Here is the method: Example 2-B or Comparative Example 29 was orally administered to mice, and the plasma level after the administration was measured to study the influence of improvement of the metabolic stability in liver microsomes on the change in the plasma level of the compound.
Female CD1 (ICR) mice of 7 weeks old which had been fed ad libitum with pellets (Oriental Yeast Co., Ltd.) and tap water were fasted for 17 hours before the administration. Feeding to the mice was begun again 4 hours after the administration.
In the case of intravenous administration of the solution, the animal was fixed in a holder, and the administration was carried out from the tail vein without anesthesia, using a syringe with an injection needle (25 G) attached thereto. In the case of oral administration, a syringe with a feeding needle attached thereto was used without anesthesia to force the solution into the stomach.
In terms of the mice to which the solution was intravenously administered, blood was collected a total of 8 times from the jugular vein or heart 5, 15 and 30 minutes and 1, 2, 4, 8 and 24 hours after the intravenous administration. In terms of the mice to which the solution was orally administered, blood was collected a total of 8 times from the jugular vein or heart 15, 30 and 45 minutes and 1, 2, 4, 8 and 24 hours after the oral administration. Further, from the jugular vein or heart of mice to which the solution was not administered, blood was collected as a blank. The collected blood was centrifuged at 4° C. at 12000 rpm for 5 minutes, and the obtained mouse plasma and blank plasma were stored at about −20° C. until preparation of samples for analysis. […]
From the results of the LC/MS/MS analysis, a calibration curve was prepared using Analysis 1.4 (Applied Biosystems). Based on the LC/MS/MS analysis and the prepared calibration curve, the concentration in each measurement sample was calculated using Analysis 1.4. For 3 times each of the experiments by intravenous administration and oral administration, the mean plasma level at each time point was calculated, and PK analysis was carried out using the obtained values (FIG. 6 and FIG. 7; each plot indicates the mean plasma level at each time point and its ±standard deviation; i.v. indicates test data by intravenous administration; and p.o. indicates test data by oral administration). The PK parameter was calculated using WinNonlin (Pharsight) by analysis independent of the models (intravenous administration: Model 201, oral administration: Model 200). Further, the bioavailability (BA) was calculated by normalization by dividing AUC0-24 hr from the time point of the intravenous administration or oral administration to the time point of the final blood collection by the dose.

Series [3] in a line: evaluation of safety using mice, 5-day repeated oral administration. Format: in vivo. Conditions: for no-observed-adverse-effect-level: Crlj:CD1 (ICR) mice, repeated oral administration for 5 days, assumed value. The protocol:
Crlj:CD1 (ICR) mice of 7 weeks old were subjected to repeated oral administration of Example 2-B or Comparative Example 29 for 5 days, and observation of clinical sign, measurement of body weight, hematology, blood chemistry, gross autopsy, measurement of organ weight and histopathology were carried out. Further, on Day 1 and Day 5 after the administration, TK measurement was carried out. Exposure to the respective compounds was confirmed.
The doses of Example 2-B were 0, 40, 200 and 1000 mg/kg/day, and those of Comparative Example 29 were 0, 30, 100 and 300 mg/kg/day. The solution to be administered was prepared using 0.5% aqueous methyl cellulose solution as a vehicle, such that the administration volume becomes 10 mL/kg.

Series [4] in a line: mouse liver microsomal stability assay. Type of series: in vitro ADME. The note with it: pH 7.4; mouse liver microsomes 0.5 mg/mL; test compound 2 μmol/L; 37° C., 0-30 min; read-out: Hepatic intrinsic clearance, Mouse. Here is the method:
(§1) A liver microsomal stability assay, which is known to be an in vitro assay for evaluation of the stability of a compound against hepatic metabolism, was carried out to evaluate the stability of Compound (I) against human and mouse hepatic metabolism.
(§2) A total of 4 times of experiments were carried out for the combinations of the compound of Example 2-B or the compound of Comparative Example 29 as the test compound and human liver microsomes (Xenotech) or mouse liver microsomes (Xenotech) as the liver microsomes.
The respective reagents to be used for the liver microsomal stability assay were prepared as follows. That is, an appropriate amount of D-glucose 6-phosphate disodium salt (hereinafter referred to as G6P) was dissolved in distilled water at 100 mmol/L, to prepare 100 mmol/L aqueous G6P solution. In 5 mL of distilled water, 1000 units of Glucose 6-phosphate dehydrogenase from Yeast (hereinafter referred to as G6PDH) was dissolved, to prepare 200 units/mL aqueous G6PDH solution. An appropriate amount of MgCl2 was dissolved in distilled water at 100 mmol/L, to prepare 100 mmol/L aqueous MgCl2 solution. […]
(Liver microsomes are a subcellular fraction often used to study metabolism.)

A short description of series [5]: human liver microsomal stability assay. Format: in vitro ADME. The note with it: liver microsomes, pH 7.4, human liver microsomes 0.5 mg/mL, test compound 2 μmol/L, 37° C., 0-30 min, read-out: Hepatic intrinsic clearance, Human. Here is the method: as §1, §2
The respective reagents to be used for the liver microsomal stability assay were prepared as follows. That is, an appropriate amount of D-glucose 6-phosphate disodium salt (hereinafter referred to as G6P) was dissolved in distilled water at 100 mmol/L, to prepare 100 mmol/L aqueous G6P solution. In 5 mL of distilled water, 1000 units of Glucose 6-phosphate dehydrogenase from Yeast (hereinafter referred to as G6PDH) was dissolved, to prepare 200 units/mL aqueous G6PDH solution. An appropriate amount of MgCl2 was dissolved in distilled water at 100 mmol/L, to prepare 100 mmol/L aqueous MgCl2 solution. To 500 mL of 200 mmol/L aqueous K2HPO4 solution, 200 mmol/L aqueous KH2PO4 solution (about 130 mL) was added, and pH was adjusted to 7.4, to prepare 200 mmol/L KH2PO4/K2HPO4 buffer pH7.4 (hereinafter referred to as 200 mmol/L PB). β-nicotinamide-adenine dinucleotide phosphate, reduced form, tetrasodium salt (hereinafter referred to as (NADPH) was dissolved in distilled water such that the NADPH content becomes 10 mmol/L based on the purity (Purity NADPH) in the assay data described in the attached document, to prepare 10 mmol/L aqueous NADPH solution.
The liver microsomal stability assay was carried out according to the following procedure. First, the reagents listed in Table 12 (excluding microsomes) were mixed together to prepare a reaction mixture, and the reaction mixture was aliquoted in 130 μL volumes to 4 wells (which play roles as the wells for the 0-minute reaction, well for the 30-minute reaction, well for the 20-minute reaction and well for the 10-minute reaction, respectively) in a 96-well tube plate (BM Equipment Co., Ltd; hereinafter referred to as plate). The entire plate was covered with a silicone cap, and the plate was subjected to preincubation by being soaked in a water bath at 37° C. for 10 minutes.
After the preincubation, 3.75 μL of 20 mg/mL microsome suspension+16.25 μL of distilled water (20 μL in total) were added to the well for the 30-minute reaction, and the plate was covered with the cap, followed by soaking the plate in a water bath at 37° C. to initiate the reaction.
Ten minutes after the beginning of the reaction, 3.75 μL of 20 mg/mL microsome suspension+16.25 μL of distilled water (20 μL in total) were added to the well for the 20-minute reaction, and 20 minutes after the beginning of the reaction, 3.75 μL of 20 mg/mL microsome suspension+16.25 μL of distilled water (20 μL in total) were added to the well for the 10-minute reaction. The reaction was further continued by keeping the plate soaked in the water bath at 37° C.
Thirty minutes after the beginning of the reaction, the plate was removed from the water bath, and 120 μL of acetonitrile was added to each well, followed by covering the plate with the cap, stirring the plate for 10 seconds with Direct Mixer, and stopping the reaction by 10 minutes of ice cooling. After the reaction was stopped, 3.75 μL of 20 mg/mL microsome suspension+16.25 μL of distilled water (20 μL in total) were added to the well for the 0-minute reaction.
The reaction liquid in each well was centrifuged at 4° C. at 2500 rpm for 10 minutes, and the supernatant was transferred to a glass-coated microplate (TOMSIC Plate+) to begin LC/MS/MS analysis. The conditions for the LC/MS/MS analysis were as follows: […]

The test system of series [6] is mouse acetic acid writhing model. Nature of the series: mouse acetic acid writhing model (nociceptive pain). Type of series: in vivo. The note with it: male ddY mice; oral administration 45 min before 0.6% acetic acid i.p.; dose suppressing 50% of writhing responses vs vehicle group; vehicle A or B.

Consider `COc1ccc(-n2nc(C3(O)CCN(C(=O)N(C)O)CC3)c(F)c2-c2ccc(C)cc2)cc1` [Comparative Example 29, 4-(4-Fluoro-1-(4-methoxyphenyl)-5-(4-tolyl)-1H-pyrazol-3-yl)-1-(N-hydroxy-N-methylcarbamoyl)-4-piperidinol, reference compound], for which the “analgesic effect 3 hours after the oral administration (von Frey test)” value in series [1] is reported as “drastically decreased”. The “time of strongest analgesic effect after oral administration (von Frey test)” value in series [1] (FIGS. 1 to 4) came out at 1 h. For the same compound, in series [2], the clearance is 94.5 mL/min/kg and the bioavailability was determined as 54%. Also, the no-observed-adverse-effect-level result in series [3] is recorded as “less than 30 mg/kg/day”. Moreover, in series [4], the microsomal CLint at 2 μmol/L came to 267 µL/min/mg. Further, the microsomal CLint at 2 μmol/L in series [5] was 110 µL/min/mg.
On to `COc1ccc(-n2nc(C3(O)CCC(O)CC3)cc2-c2ccc(C)cc2)cc1` (stereo not drawn) [Example 2-B, 1-(1-(4-methoxyphenyl)-5-(p-tolyl)-1H-pyrazol-3-yl)cyclohexane-cis-1,4-diol], for which, in series [2], the clearance was 16.2 mL/min/kg and the bioavailability turned out to be 88%. This compound returned an ED50 in series [6] of 1.40 mg/kg. In series [3], this compound showed a no-observed-adverse-effect-level of 200 mg/kg/day. Besides, the toxicity findings entry in series [3] (mouse, in vivo, po, 1000 mg/kg/day) is “possibilities of induction of hepatotoxicity, effects on immune organs/tissues and induction of gastrointestinal toxicity were suggested”.
